According to patent US20220315554A1, “COMPOUNDS COMPRISING A […] LIGAND AND USE THEREOF” (priority 2019, published 2022):
Numbered stars: 1 amine (or outer) side, 2 acyl side, 3 side chain; on linkers, the order of the positions; unused ones are H or OH. Bridge positions count the residues as written; N and C are the ends. Square brackets hold non-standard residues; d marks the D form. Peptide text beside a SMILES is read from it. * marks the point of attachment. TBMB(SCH2CH2NH-DOTA) = O=C(O)CN1CCN(CC(=O)O)CCN(CC(=O)NCCSCc2cc(C[*:1])cc(C[*:2])c2)CCN(CC(=O)O)CC1; X3 = NC(=O)[C@H](CCCCNC(=O)CN1CCN(CC(=O)O)CCN(CC(=O)O)CCN(CC(=O)O)CC1)NC(=O)CCC(=O)NCCCOCCOCCOCCCN*; X47 = O=C(O)CN1CCN(CC(=O)O)CCN(CC(=O)NCCCCCNC(=O)CCC(=O)NCCCOCCOCCOCCCN*)CCN(CC(=O)O)CC1; X1 = O=C(O)CN1CCN(CC(=O)O)CCN(CC(=O)N2CCN(Cc3cc(C[*:1])cc(C[*:2])c3)CC2)CCN(CC(=O)O)CC1; X52 = NCCOCCOCC(=O)N1CCN(Cc2cc(C[*:1])cc(C[*:2])c2)CC1; γGlu = O=C(O)[C@H](CCC(=O)[*:2])N[*:1]; mXylylene = c1cc(C[*:1])cc(C[*:2])c1; X44 = O=C(CC1CCN([*:1])CC1)[*:2]; X18 = NCCNCC(CNCCN)C(=O)*; Nle = CCCC[C@H](N)C(=O)O; Hexanoyl = CCCCCC(=O)*; βAla = NCCC(=O)O; Sar = CNCC(=O)O

Assays:
[1] = biological target: T1, FAP-expressing human WI-38 fibroblasts (Homo sapiens, UniProt Q12884); experiment: Competitive FACS binding assay; conditions: pIC50 Category (FACS), competition with 3 nM Cy5-labeled compound, 4° C., 1 hour
T1 construct: FAP-expressing human WI-38 fibroblasts (ECACC) were cultured in EMEM; host or cells: WI-38 human fibroblasts
T1 sequence (Q12884 1-760): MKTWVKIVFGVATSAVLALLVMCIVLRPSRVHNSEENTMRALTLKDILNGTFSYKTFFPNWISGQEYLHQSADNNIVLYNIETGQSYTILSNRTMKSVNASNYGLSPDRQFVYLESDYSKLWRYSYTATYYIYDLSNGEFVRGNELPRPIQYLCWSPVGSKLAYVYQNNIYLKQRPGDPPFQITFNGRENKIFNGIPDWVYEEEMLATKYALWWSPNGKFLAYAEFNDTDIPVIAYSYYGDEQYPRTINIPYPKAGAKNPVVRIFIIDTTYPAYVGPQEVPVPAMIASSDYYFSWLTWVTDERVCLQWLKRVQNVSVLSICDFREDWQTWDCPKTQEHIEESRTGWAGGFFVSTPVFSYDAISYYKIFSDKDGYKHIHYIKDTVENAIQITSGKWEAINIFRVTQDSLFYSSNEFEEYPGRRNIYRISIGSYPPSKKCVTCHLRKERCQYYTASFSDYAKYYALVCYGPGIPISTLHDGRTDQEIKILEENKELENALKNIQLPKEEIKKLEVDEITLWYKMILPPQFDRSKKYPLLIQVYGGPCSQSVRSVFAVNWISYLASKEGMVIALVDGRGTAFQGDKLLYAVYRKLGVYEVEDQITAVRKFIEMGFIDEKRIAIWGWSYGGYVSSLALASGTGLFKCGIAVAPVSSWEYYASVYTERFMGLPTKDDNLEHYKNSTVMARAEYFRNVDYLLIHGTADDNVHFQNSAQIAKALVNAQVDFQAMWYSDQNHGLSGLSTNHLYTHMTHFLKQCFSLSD
Method: Cells were analyzed in an Attune NxT flow cytometer. […]

Human recombinant FAP = biological target: T2, Human recombinant FAP (Homo sapiens, UniProt Q12884); experiment: FRET-based FAP protease activity assay; format: biochemical; parameters: purchased R&D systems 3715-SE; conditions: pIC50 Category (Activity), FRET substrate, 37° C.
T2 sequence (Q12884 1-760): T1 sequence (Q12884 1-760)

| SMILES | IC50 ([1]; WI-38 fibroblasts) [µM] | IC50 (Human recombinant FAP; recombinant human FAP) [µM] | IC50 [1] [µM] | IC50 (Human recombinant FAP) [µM] |
| --- | --- | --- | --- | --- |
| CCCCCC(=O)N[C@H]1CSCc2cccc(c2)CSC[C@@H](C(=O)NCCC(=O)O)NC(=O)[C@H](Cc2ccccc2)NC(=O)[C@H](CCC(=O)O)NC(=O)[C@H]([C@@H](C)O)NC(=O)[C@@H]2CCCN2C(=O)[C@@H]2CCCN2C1=O [3BP-3371, Hex-[Cys(3MeBn)-Pro-Pro-Thr-Glu-Phe-Cys]-Bal-OH] (Hexanoyl-CPPTEFC[βAla]-OH; linker 1-7 via mXylylene) | < 0.01 | 0.01 to 0.0794 |  |  |
| CCCCCC(=O)N[C@H]1CSCc2cc(cc(CN3CCN(C(=O)COCCOCCNC(=O)C(CNCCN)CNCCN)CC3)c2)CSC[C@@H](C(=O)O)NC(=O)[C@H](Cc2ccccc2)NC(=O)[C@H](CCC(N)=O)NC(=O)[C@H]([C@@H](C)O)NC(=O)[C@@H]2CCCN2C(=O)[C@@H]2CCCN2C1=O [3BP-4169, Hex-[Cys-(tMeBn(N4Ac-O2Oc-PP))-Pro-Pro-Thr-Gln-Phe-Cys]-OH] |  |  | 0.01 to 0.0794 | < 0.01 |
| CCCCCC(=O)N[C@H]1CSCc2cc(CSCCNC(=O)CN3CCN(CC(=O)O)CCN(CC(=O)O)CCN(CC(=O)O)CC3)cc(c2)CSC[C@@H](C(=O)N[C@@H](CC(=O)O)C(=O)NCCCOCCOCCOCCCNC(=O)CCC(=O)N[C@@H](CCCCNC(=O)CN2CCN(CC(=O)O)CCN(CC(=O)O)CCN(CC(=O)O)CC2)C(N)=O)NC(=O)[C@H](Cc2ccccc2)NC(=O)[C@H](CCC(N)=O)NC(=O)[C@H]([C@@H](C)O)NC(=O)[C@@H]2CCCN2C(=O)[C@@H]2CCCN2C1=O [3BP-4391, Hex-[Cys(tMeBn(DOTA-AET))-Pro-Pro-Thr-Gln-Phe-Cys]-Asp-Ttds-Lys(DOTA)-NH2] (Hexanoyl-CPPTQFCD-X3; linker 1-7 via TBMB(SCH2CH2NH-DOTA)) |  |  | < 0.01 | < 0.01 |
| CCCCCC(=O)N[C@H]1CSCc2cc(CSCCNC(=O)CCC(=O)NCCCOCCOCCOCCCNC(=O)c3ccc(NN)nc3)cc(c2)CSC[C@@H](C(=O)O)NC(=O)[C@H](Cc2ccccc2)NC(=O)[C@H](CCC(N)=O)NC(=O)[C@H]([C@@H](C)O)NC(=O)[C@@H]2CCCN2C(=O)[C@@H]2CCCN2C1=O [3BP-4376, Hex-[Cys-(tMeBn(H-HYNIC-Ttds-AET))-Pro-Pro-Thr-Gln-Phe-Cys]-OH] |  |  | < 0.01 | < 0.01 |
| CSCC[C@H](NC(C)=O)C(=O)N[C@H]1CSCc2cccc(c2)CSC[C@@H](C(=O)N[C@@H](CC(=O)O)C(=O)N[C@@H](Cc2c[nH]cn2)C(=O)N[C@@H](Cc2ccccc2)C(N)=O)NC(=O)[C@H](Cc2ccccc2)NC(=O)[C@H](CCC(=O)O)NC(=O)[C@H]([C@@H](C)O)NC(=O)[C@@H]2CCCN2C(=O)[C@@H]2CCCN2C1=O [3BP-3199, Ac-Met-[Cys(3MeBn)-Pro-Pro-Thr-Glu-Phe-Cys]-Asp-His-Phe-NH2] (Ac-MCPPTEFCDHF-NH2; linker 2-8 via mXylylene) | 0.1 to 0.794 | 0.01 to 0.0794 |  |  |
| CCCCCC(=O)N[C@H]1CSCc2cccc(c2)CSC[C@@H](C(=O)N[C@@H](CC(=O)O)C(=O)NCCCOCCOCCOCCCNC(=O)CCC(=O)NCCCCCNC(=O)CN2CCN(CC(=O)O)CCN(CC(=O)O)CCN(CC(=O)O)CC2)NC(=O)[C@H](Cc2ccccc2)NC(=O)[C@H](CCC(N)=O)NC(=O)[C@H]([C@@H](C)O)NC(=O)[C@@H]2CCCN2C(=O)[C@@H]2CCCN2C1=O [3BP-3404, Hex-[Cys(3MeBn)-Pro-Pro-Thr-Gln-Phe-Cys]-Asp-Ttds-Ape(DOTA)] (Hexanoyl-CPPTQFCD-X47; linker 1-7 via mXylylene) | < 0.01 | < 0.01 |  |  |
| CCCCCC(=O)N[C@H]1CSCc2cc(cc(CN3CCN(C(=O)COCCOCCN)CC3)c2)CSC[C@@H](C(=O)N[C@@H](CC(=O)O)C(N)=O)NC(=O)[C@H](Cc2ccccc2)NC(=O)[C@H](CCC(N)=O)NC(=O)[C@H]([C@@H](C)O)NC(=O)[C@@H]2CCCN2C(=O)[C@@H]2CCCN2C1=O [3BP-3967, Hex-[Cys-(tMeBn(H-O2Oc-PP))-Pro-Pro-Thr-Gln-Phe-Cys]-Asp-NH2] (Hexanoyl-CPPTQFCD-NH2; linker 1-7 via X52) |  |  | < 0.01 | < 0.01 |
| CCCCCC(=O)N[C@H]1CSCc2cccc(c2)CSC[C@@H](C(=O)N[C@@H](CC(=O)O)C(=O)N2CCC(CC(=O)N[C@@H](CCCNC(=N)N)C(N)=O)CC2)NC(=O)[C@H](Cc2ccccc2)NC(=O)[C@H](CCC(=O)O)NC(=O)[C@H]([C@@H](C)O)NC(=O)[C@@H]2CCCN2C(=O)[C@@H]2CCCN2C1=O [3BP-3302, Hex-[Cys(3MeBn)-Pro-Pro-Thr-Glu-Phe-Cys]-Asp-Cmp-Arg-NH2] (Hexanoyl-CPPTEFCD[X44]R-NH2; linker 1-7 via mXylylene) | < 0.01 | < 0.01 |  |  |
| CCCCCC(=O)N[C@H]1CSCc2cc(cc(CN3CCN(C(=O)CN4CCN(CC(=O)O)CCN(CC(=O)O)CCN(CC(=O)O)CC4)CC3)c2)CSC[C@@H](C(=O)O)NC(=O)[C@H](Cc2ccccc2)NC(=O)[C@H](CCC(N)=O)NC(=O)[C@H]([C@@H](C)O)NC(=O)[C@@H]2CCCN2C(=O)CN(C)C1=O [3BP-3771, Hex-[Cys(tMeBn(DOTA-PP))-Nmg-Pro-Thr-Gln-Phe-Cys]-OH] (Hexanoyl-C[Sar]PTQFC-OH; linker 1-7 via X1) |  |  | < 0.01 | < 0.01 |
| CCCCCC(=O)N[C@H]1CSCc2cc(cc(CN3CCNCC3)c2)CSC[C@@H](C(=O)O)NC(=O)[C@H](Cc2ccccc2)NC(=O)[C@H](CCC(N)=O)NC(=O)[C@H]([C@@H](C)O)NC(=O)[C@@H]2CCCN2C(=O)[C@@H]2CCCN2C1=O [3BP-4181, Hex-[Cys-(tMeBn(H-PP))-Pro-Pro-Thr-Gln-Phe-Cys]-OH] |  |  | 0.01 to 0.0794 | 0.01 to 0.0794 |
| CCCC(NC(=O)CCC(=O)NCCCOCCOCCOCCCNC(=O)CN1CCN(CC(=O)O)CCN(CC(=O)O)CCN(CC(=O)O)CC1)C(=O)N[C@H]1CSCc2cc(CSCCNC(=O)CN3CCN(CC(=O)O)CCN(CC(=O)O)CCN(CC(=O)O)CC3)cc(c2)CSC[C@@H](C(=O)N[C@@H](CC(=O)O)C(=O)NCCCOCCOCCOCCCNC(=O)CCC(=O)N[C@@H](CCCCNC(=O)CN2CCN(CC(=O)O)CCN(CC(=O)O)CCN(CC(=O)O)CC2)C(N)=O)NC(=O)[C@H](Cc2ccccc2)NC(=O)[C@H](CCC(N)=O)NC(=O)[C@H]([C@@H](C)O)NC(=O)[C@@H]2CCCN2C(=O)[C@@H]2CCCN2C1=O (stereo partly drawn) [3BP-4392, DOTA-Ttds-Nle-[Cys(tMeBn(DOTA-AET))-Pro-Pro-Thr-Gln-Phe-Cys]-Asp-Ttds-Lys(DOTA)-NH2] |  |  | 0.01 to 0.0794 | 0.01 to 0.0794 |
| CCCC[C@H](NC(=O)CC[C@H](NC(=O)C(CNCCN)CNCCN)C(=O)O)C(=O)N[C@H]1CSCc2cccc(c2)CSC[C@@H](C(=O)O)NC(=O)[C@H](Cc2ccccc2)NC(=O)[C@H](CCC(=O)O)NC(=O)[C@H]([C@@H](C)O)NC(=O)[C@@H]2CCCN2C(=O)[C@@H]2CCCN2C1=O [3BP-4230, N4Ac-gGlu-Nle-[Cys-(3MeBn)-Pro-Pro-Thr-Glu-Phe-Cys]-OH] ({X18-γGlu}-[Nle]CPPTEFC-OH; linker 2-8 via mXylylene) |  |  | > 1 | > 1 |
| CCCCCC(=O)N[C@H]1CSCc2cc(cc(CN3CCN(C(=O)CN4CCN5CCN6CCN(CC4)CC(=O)[O][In]([O]C(=O)C6)[O]C(=O)C5)CC3)c2)CSC[C@@H](C(=O)O)NC(=O)[C@H](Cc2ccccc2)NC(=O)[C@H](CCC(N)=O)NC(=O)[C@H]([C@@H](C)O)NC(=O)[C@@H]2CCCN2C(=O)[C@@H]2CCCN2C1=O [3BP-3770, Hex-[Cys(tMeBn(InDOTA-PP))-Pro-Pro-Thr-Gln-Phe-Cys]-OH] |  |  | < 0.01 | < 0.01 |
| CCCCCC(=O)N[C@H]1CSCc2cc(CSCCNC(=O)CCCC(=O)Nc3ccc(C[C@H](CN(CCN(CC(=O)O)CC(=O)O)CC(=O)O)N(CC(=O)O)CC(=O)O)cc3)cc(c2)CSC[C@@H](C(=O)O)NC(=O)[C@H](Cc2ccccc2)NC(=O)[C@H](CCC(N)=O)NC(=O)[C@H]([C@@H](C)O)NC(=O)[C@@H]2CCCN2C(=O)[C@@H]2CCCN2C1=O [3BP-4366, Hex-[Cys-(tMeBn(DTPABzl-Glutar-AET))-Pro-Pro-Thr-Gln-Phe-Cys]-OH] |  |  | 0.1 to 0.794 | 0.1 to 0.794 |
| CCCCCC(=O)N[C@H]1CSCc2cc(CSCCNC(=O)CCP(=O)(O)CN3CCN(CP(=O)(O)CO)CCN(CP(=O)(O)CO)CC3)cc(c2)CSC[C@@H](C(=O)O)NC(=O)[C@H](Cc2ccccc2)NC(=O)[C@H](CCC(N)=O)NC(=O)[C@H]([C@@H](C)O)NC(=O)[C@@H]2CCCN2C(=O)[C@@H]2CCCN2C1=O [3BP-4380, Hex-[Cys-(tMeBn(NOPO-AET))-Pro-Pro-Thr-Gln-Phe-Cys]-OH] |  |  | < 0.01 | < 0.01 |
